Where two headings read alike, the source gives them in different places.
Columns and labels:
[1] = tested on: NCI-H358, MIA PaCa-2, MDA-MB-231 and A375 3D spheroids; experiment: 3D spheroid growth benchmarking, DSS3, alamarBlue; assay type: cell-based; settings: spheroids grown 72 h then treated 72 h
Protocol: (§1) 3D spheroid formation assays were performed in 96-well low-attachment, suspension culture plates (cat. no. 655185, Cellstar, Greiner Bio-One) under serum-free condition. About 1,000 (MDA-MB-231, NCI-H358, and MIA PaCa-2) or 2,500 (Hs 578T) cells per well were seeded in 50 μl of either an RPMI medium (cat. no. 52400-025, Gibco, Thermo Fisher Scientific) (MDA-MB-231, A375, and NCI-H358) or DMEM (cat. no. 41965-039, Gibco, Thermo Fisher Scientific) (Hs 578T and MIA PaCa-2), containing 0.5% MethoCult (cat. no. SF H4636, Stemcell technologies), 1x B27 (cat. no. 17504044, Gibco, Thermo Fisher Scientific), 25 ng/ml EGF (cat. no. E9644, Sigma-Aldrich), and 25 ng/ml FGF (cat. no. RP-8628, Thermo Fisher Scientific). Cells were cultured for 3 days and then treated with compounds or vehicle control (DMSO 0.1% v/v in growth medium) for another 3 days. The cells were supplemented with a fresh growth medium on the third day together with the drug treatment. For knockdown experiments, cells were seeded in 12-well plates and treated with either 50 nM scrambled siRNA (cat. no. 1022076, QIAGEN) or indicated concentrations of siRNAs. Next day, cells were collected by trypsinization and re-plated into 96-well plates for 3D spheroid suspension culture.
(§2) Spheroid formation efficiency was analyzed by an alamarBlue assay reagent (cat. no. DAL1100, Thermo Fisher Scientific). A 10% final volume of the alamarBlue reagent was added to each well of the plate and incubated for 4 h at 37°C. Then the fluorescence intensity was measured using the FLUOstar OPTIMA plate reader (BMG Labtech, Germany) with an excitation wavelength of 560 ± 5 nm and an emission wavelength of 590 ± 5 nm.
(§3) To quantitatively profile the drug sensitivity with a more robust parameter than the IC50 or EC50 values, the drug sensitivity score (DSS) analysis was employed. DSS values are essentially normalized area under the curve (AUC) measures of dose-response inhibition data ([Yadav et al., 2014]). Drug response data files (in Excel) ready for online analysis were prepared according to the example file obtained from the DSS pipeline website, called Breeze^1 ([Potdar et al., 2020]). Either raw fluorescence intensity measurements or normalized % inhibition data (for BRET assay analysis) were uploaded.
(§4) DSS3 was employed to emphasize drugs that obtain their response area over a relatively wide dose window, as compared to drugs that show increased response only at the higher end of the concentration range. After logistic fitting of the dose-response inhibition data, the area under the curve (AUC) was determined as the exact solution. A 10% minimal activity threshold (t) was set. The maximum (Cmax) and minimum (Cmin) concentrations were used for screening of the inhibitors, with Cmax = x2 and x1 concentration with minimal activity t.

MDA-MB-231 = experiment: 3D spheroid (tumorosphere) formation assay, low attachment, serum-free, alamarBlue; assay type: cell-based; settings: for IC50: Homo sapiens; for KRAS/HRAS mutant cell line DSS3 ratio: MDA-MB-231 vs Hs 578T 3D spheroid formation, 0.6–40 μM, numbers above bars Fig. 1A,B
Protocol: as §1, §2, §3, §4

Hs 578T = experiment: as above; assay type: cell-based; settings: for IC50: Homo sapiens
Protocol: as §1, §2, §3, §4

calmodulin (CaM) = calmodulin (CaM) (Bos taurus, UniProt P62157); experiment: Fluorescence polarization assay, displacement of F-PMCA peptide from CaM; settings: for kinact/KI: read-out: k2/Ki second-order rate constant
Protocol: Compounds were threefold-diluted in an assay buffer (20 mM Tris Cl pH 7.5, 50 mM NaCl, 1 mM CaCl2, and 0.005% Tween 20), and a complex of 100 nM CaM and 10 nM F-PMCA peptide was added. […] Then the plate was incubated overnight at 4°C, and the next day, final readings were taken after a total of 24 h incubation. The fluorescence anisotropy was calculated and plotted against the logarithm of the compound concentration and fit to the log inhibitor vs. response–variable slope (four parameters) equation in Prism (GraphPad).
The potency and selectivity of a covalent inhibitor are governed by two parameters, namely, Ki, the dissociation constant of the initial non-covalent complex, and k2, the rate of the subsequent covalent bond-forming reaction as given in the chemical equation
E and I denote a protein target and its covalent inhibitor, respectively. E ⋅ I is the initial non-covalent complex, and E – I is the final covalent complex. […] This was repeated for several inhibitor concentrations. Then, kobs was plotted against the concentration of the inhibitor, and the data were fit to a hyperbolic equation kobs=k2×[I]/Ki+[I] to obtain Ki and k2. The ratio of k2/Ki represents the second-order rate constant of the reaction of the covalent inhibitor with the target.

K-RasG12V/CaM = molecular target: T1, K-RasG12V/CaM (Homo sapiens, UniProt P0DP23); experiment: Rluc8-K-RasG12V/GFP2-CaM interaction BRET in HEK293-EBNA cells; assay type: cell-based; settings: calmidazolium 20 μM, prostratin 20 μM, OphA 5 μM
T1 construct: expressed in transfected cells; host or cells: HEK293-EBNA
Protocol: (§5) BRET assays were essentially performed as described by others ([Lavoie et al., 2013]; [Bery et al., 2018]). About 100,00–150,000 HEK293-EBNA ([Meissner et al., 2001]) cells were seeded per well of a 12-well plate in 1 ml of DMEM containing 10% FBS and 2 mM L-glutamine and were grown for 24 h. Next day, Rluc8-tagged donor and GFP2-tagged acceptor constructs were transfected into cells using a jetPRIME transfection reagent (cat. no. 114-75, Polyplus). Each well was transfected with about 1 μg of plasmid DNA using 3 μl of the jetPRIME reagent. For BRET donor saturation titration experiments, the concentration of donor plasmid (25 ng) was kept constant, and the concentration of acceptor plasmid was increased from 0 to 500 ng for RasG12V BRET pairs and 0–1,000 ng for K-Ras/CaM BRET pairs. The empty pcDNA3.1(-) plasmid was used to top-up the total DNA load per transfection. After 24 h of transfection, cells were treated with compounds or vehicle control (DMSO 0.2% v/v in a growth medium) at the specified concentration for 24 h or the stipulated time period in case of the time-course experiments. The cells from one well of a 12-well plate were collected, washed, and re-plated in PBS (cat. no. 14190-094, Gibco, Thermo Fisher Scientific) on flat bottom, white 96-well plates (cat. no. 236108, Nunc, Thermo Fisher Scientific) as four technical replicates containing 90 μl of cell suspension per well. Then fluorescence intensity followed by BRET readings were carried out on a Clariostar (BMG Labtech) plate reader at 25°C. The fluorescence intensity (RFU) of GFP2 was measured with excitation at 405 ± 10 nm and emission 515 ± 10 nm; it is proportional to the acceptor concentration [acceptor]. BRET readings were taken well by well by adding 10 μl of 100 μM coelenterazine 400a (cat. no. C-320, GoldBio), the Rluc8 substrate to each well (final concentration of 10 μM) using the injector present in the plate reader. Luminescence emission intensities were simultaneously recorded at 410 ± 40 nm (RLU, proportional to [donor]) and 515 ± 15 nm (BRET signal).
(§6) The raw BRET ratio was calculated as the BRET signal measured at 515 nm divided by the emission signal measured at 410 nm (RLU). The BRET ratio was obtained by subtracting the raw BRET ratio by a background BRET signal measured for cells expressing only the donor ([Bacart et al., 2008]) as indicated in the formula below:
(§7) For BRET donor saturation titration experiments, the BRET ratio was plotted against the [acceptor]/[donor] ratio. Technical repeat data points were averaged, and data points from all biological repeats were collected into one graph for subsequent fitting. The BRET ratio vs. relative expression data were fitted using a binding saturation equation in the Prism (GraphPad) software to obtain BRETmax and BRET50 using the equation y=BRETmax×x/BRET50+x , where x is the relative expression and y is the BRET ratio. BRETmax represents the maximum saturation BRET signal and depends on the structural parameters (distance, orientation) of the BRET complex. BRET50 corresponds to the ratio of the acceptor construct over the donor construct required to attain 50% of the maximum BRET signal and is a measure of the effective relative affinity between the interacting BRET pair ([Marullo and Bouvier, 2007]).

K-RasG12V = K-RasG12V nanoclustering-BRET assay in HEK293-EBNA cells; assay type: cell-based; settings: mevastatin 10 μM; for K-Ras selective reduction of nanoclustering-BRET (K-Ras vs H-Ras): 24 h, calmidazolium 20 μM, OphA 2.5 μM, prostratin 10 μM, benzazulenones 20 μM
Protocol: as §5, §6, §7
When applying the DSS analysis to nanoclustering-BRET data, we used mevastatin (10 μM) to obtain the asymptote parameter (a) for the maximal inhibition effect, as it prevents the prenylation of Ras proteins, their plasma membrane trafficking, and therefore nanoclustering. Otherwise, normalized BRET ratio data were converted to % inhibition and then subsequently uploaded onto the Breeze site (see text footnote 1).

[2] = 72 h, MDA-MB-231 (K-RasG13D) 3D tumorosphere, 3 days treatment, read-out: IC50
[3] = MDA-MB-231 3D tumorosphere, log scale, read-out: logIC50 ± SD (converted)
[4] = 72 h, Hs 578T (H-RasG12D) 3D tumorosphere, 3 days treatment, read-out: IC50
[5] = Hs 578T 3D tumorosphere, log scale, read-out: logIC50 ± SD (converted)
[6] = MDA-MB-231 3D tumorosphere, log scale
[7] = Hs 578T 3D tumorosphere, log scale

| SMILES | IC50 (MDA-MB-231; [2]) [µM] | KRAS/HRAS mutant cell line DSS3 ratio (MDA-MB-231) | IC50 (Hs 578T; [4]) [µM] | IC50 (Hs 578T; [5]) [µM] | Kd (calmodulin (CaM)) [µM] | logIC50 ± SD (MDA-MB-231; [6]) | logIC50 ± SD (Hs 578T; [7]) | also measured |
| --- | --- | --- | --- | --- | --- | --- | --- | --- |
| C=CC(=O)N1CCN(c2nc(=O)n(-c3c(C)ccnc3C(C)C)c3nc(-c4c(O)cccc4F)c(F)cc23)[C@@H](C)C1 [AMG-510] | – | – | – | – | – | – | – | effect on 3D spheroid growth [1]: selectively and potently abolished the growth |
| Cc1c(N2CCCC2)c2c(=O)c(C(F)(F)F)cc3ccc(C(C)C)cc1c32 [Compound 11, 2-pyrrolidinylbenzazulen-3-one] | 15.4 | 1.2 | 5.2 | 5.89 | 0.81 | – | – | IC50 (MDA-MB-231; [3]): 15.5 µM; Ki (calmodulin (CaM)): 78 µM; kinact/KI (calmodulin (CaM)): 1.11 M⁻¹ s⁻¹ |
| CC(C)c1ccc2cc(C(F)(F)F)c(=O)c3c(N4CCOCC4)c(C=O)c(c1)c23 [Compound 2] | 22.8 | 3.3 | 24.9 | 24.5 | 0.23 | – | – | IC50 (MDA-MB-231; [3]): 22.9 µM; Ki (calmodulin (CaM)): 13 µM; affinity for CaM relative to OphA (calmodulin (CaM); after 24-h incubation, higher affinity than OphA): 15 fold; kinact/KI (calmodulin (CaM)): 25.8 M⁻¹ s⁻¹ |
| CC(=O)O[C@@]12C[C@@H](C)[C@@]3(O)[C@@H](C=C(CO)C[C@]4(O)C(=O)C(C)=C[C@@H]34)[C@@H]1C2(C)C [prostratin] | – | – | – | – | – | – | – | effect on Rluc8-K-RasG12V/GFP2-CaM BRET signal, single concentration (K-RasG12V/CaM): did not have an effect; K-Ras selective reduction of nanoclustering-BRET (K-Ras vs H-Ras) (K-RasG12V): 1.5 fold; effect on 3D spheroid growth [1]: almost no effect on cell growth |
| Cc1c(NCCO)c2c(=O)c(C(F)(F)F)cc3ccc(C(C)C)cc1c32 [Compound 13] | > 40 | 14.5 | > 40 | – | 62 | Inconclusive | Inconclusive | – |
| Cc1c(N)c2c(=O)c(C(F)(F)F)cc3ccc(C(C)C)cc1c32 [Compound 14] | > 40 | 4.7 | > 40 | – | 21.4 | Inconclusive | Inconclusive | – |
| CC(C)c1ccc2cc(C(F)(F)F)c(=O)c3c(N4CCCC4)c(C=O)c(c1)c23 [Compound 4] | > 40 | 2.0 | > 40 | – | 39 | Inconclusive | Inconclusive | – |
| Cc1c(N2CCOCC2)c2c(=O)c(C(F)(F)F)cc3ccc(C(C)C)cc1c32 [Compound 9] | 19.6 | 1.3 | 17.4 | 17.4 | 1.44 | – | – | IC50 (MDA-MB-231; [3]): 19.5 µM; Ki (calmodulin (CaM)): 229 µM; kinact/KI (calmodulin (CaM)): 1.67 M⁻¹ s⁻¹ |
| CC(C)c1ccc2cc(C(F)(F)F)c(=O)c3c(NCCO)c(C=O)c(c1)c23 [Compound 6] | > 40 | 115.5 | > 40 | – | 31 | Inconclusive | Inconclusive | – |
| CCCS(=O)(=O)Nc1ccc(F)c(C(=O)c2c[nH]c3ncc(-c4ccc(Cl)cc4)cc23)c1F [vemurafenib] | – | – | – | – | – | – | – | effect on 3D spheroid growth [1]: selectively and potently abolished the growth |
| CC(C)c1ccc2cc(C(F)(F)F)c(=O)c3c(N4CCC4)c(C=O)c(c1)c23 [Compound 5] | 34.5 | 0.7 | 13.2 | 13.2 | 29 | – | – | IC50 (MDA-MB-231; [3]): 34.7 µM |
| CC(C)c1ccc2cc(C(F)(F)F)c(=O)c3c(N)c(C=O)c(c1)c23 [Compound 7] | > 40 | 2.2 | > 40 | – | 45 | Inconclusive | Inconclusive | – |
| CC[C@H](C)C(=O)O[C@H]1CCC=C2C=C[C@H](C)[C@H](CC[C@@H]3C[C@@H](O)CC(=O)O3)[C@H]21 [mevastatin] | – | – | – | – | – | – | – | time-dependent change of K-RasG12V nanoclustering-BRET signal (K-RasG12V; 2-h treatment timeframe, OphA 10 μM): did not cause any reduction in the BRET signal; K-Ras selective reduction of nanoclustering-BRET (K-Ras vs H-Ras) (K-RasG12V): fairly indiscriminately |
| Cc1c(N2CCC2)c2c(=O)c(C(F)(F)F)cc3ccc(C(C)C)cc1c32 [Compound 12] | > 40 | 0.01 | 8.5 | 7.94 | 6.1 | Inconclusive | – | – |
| Cc1c(N2CCN(C)CC2)c2c(=O)c(C(F)(F)F)cc3ccc(C(C)C)cc1c32 [Compound 10] | > 40 | 0.03 | 23.1 | 22.9 | – | Inconclusive | – | Kd ± SD (calmodulin (CaM); CaM-binding affinity after 24-h incubation, F-PMCA probe): Inconclusive |

Source: PMC8296985, “A Covalent Calmodulin Inhibitor as a Tool to Study Cellular Mechanisms of K-Ras-Driven Stemness” (Frontiers in Cell and Developmental Biology, 2021)
